Measured values as given in US11833156B2, “Heterocyclic compounds as pad inhibitors” (JUBILANT EPIPAD LLC, priority 2017, dated 2023).
Structures can show the parent of a compound that is named as a salt.

Each molecule was assayed against PAD4 enzyme (Homo sapiens (Human), UniProt Q9UM07) (assay: Ammonia Release Biochemical Assay (citrullination detected via ammonia release)). Settings: PAD4 120 nM, substrate BAEE, 60-min preincubation, read-out: NH3 release.
Experimental: Ammonia Release Biochemical Assay
Citrullination assay was detected via ammonia release. PAD4 enzyme was diluted to 120 nM in assay buffer (100 mM HEPES, 50 mM NaCl, 2 mM DDT, 0.6 mg/mL BSA, pH 7.4) added to wells containing various concentration of compound or DMSO vehicle (1% final) in black 384 well plate. Following a 60-min preincubation at room temperature, the reaction was initiated by the addition of substrate (1.5 mM BAEE in 200 mM HEPES, 50 mM NaCl, 350 uM CaCl2, 2 mM, pH 7.4). The reaction was stopped after 60 min by addition of stop/detection buffer containing 50 mM EDTA, 2.6 mM of o-phthaladehyde and 2.6 mM DTT. Assay was incubated at room temperature for 90 min before measuring fluorescence's (λex 405/λem 460 nm) on Tecan reader. IC50 was calculated using XL-fit software model 205. (Ref: Nat Chem Biol. 2015 March; 11(3):189-91).

PAD4 enzyme, sequence (Q9UM07 whole entry): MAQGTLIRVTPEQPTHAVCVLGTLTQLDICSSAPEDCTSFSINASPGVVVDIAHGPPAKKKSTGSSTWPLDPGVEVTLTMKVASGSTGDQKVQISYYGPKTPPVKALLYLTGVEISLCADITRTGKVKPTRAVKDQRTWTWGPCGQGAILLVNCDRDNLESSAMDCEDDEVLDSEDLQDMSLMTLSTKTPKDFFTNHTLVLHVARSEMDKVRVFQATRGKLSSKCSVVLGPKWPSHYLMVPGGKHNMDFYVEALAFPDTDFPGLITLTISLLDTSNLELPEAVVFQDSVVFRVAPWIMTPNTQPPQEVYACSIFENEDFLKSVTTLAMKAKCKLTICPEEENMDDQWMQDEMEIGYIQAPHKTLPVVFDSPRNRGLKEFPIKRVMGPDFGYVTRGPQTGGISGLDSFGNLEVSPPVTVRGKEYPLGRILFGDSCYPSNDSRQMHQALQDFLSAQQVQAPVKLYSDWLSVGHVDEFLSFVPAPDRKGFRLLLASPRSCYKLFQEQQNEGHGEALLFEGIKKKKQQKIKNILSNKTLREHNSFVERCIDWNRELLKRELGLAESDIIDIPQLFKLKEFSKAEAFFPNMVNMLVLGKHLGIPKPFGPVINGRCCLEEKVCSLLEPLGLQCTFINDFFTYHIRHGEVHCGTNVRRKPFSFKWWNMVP

Row | SMILES | IC50
1 | N[C@@H]1CCN(C(=O)c2cc3c4c(c2)nc(-c2cc5ccccc5n2CC2CC2)n4CCO3)C1 [Example 2, (R)-(3-aminopyrrolidin-1-yl)(2-(1-(cyclopropylmethyl)-1H-indol-2-yl)-3,4-dihydro-5-oxa-1,2a-diazaacenaphthylen-7-yl)methanone] | 1000 to 10000 nM
2 | CCn1c(-c2nc3cc(C(=O)N4CCC[C@@H](N)C4)cc4c3n2CCO4)cc2ccccc21 [Example 3, (R)-(3-aminopiperidin-1-yl)(2-(1-ethyl-1H-indol-2-yl)-3,4-dihydro-5-oxa-1,2a-diazaacenaphthylen-7-yl)methanone] | 1000 to 10000 nM
3 | N[C@@H]1CCCN(C(=O)c2cc3c4c(c2)nc(-c2cc5ccccc5n2CC2CC2)n4CCCO3)C1 [Example 6, (R)-(3-aminopiperidin-1-yl)(1-(1-(cyclopropylmethyl)-1H-indol-2-yl)-8,9-dihydro-7H-6-oxa-2,9a-diazabenzo[cd]azulen-4-yl)methanone] | 1000 to 10000 nM
4 | N[C@@H]1CCN(C(=O)c2cc3c4c(c2)nc(-c2cc5ccccc5n2CC2CC2)n4CCCO3)C1 [Example 7, (R)-(3-aminopyrrolidin-1-yl)(1-(1-(cyclopropylmethyl)-1H-indol-2-yl)-8,9-dihydro-7H-6-oxa-2,9a-diazabenzo[cd]azulen-4-yl)methanone] | 1000 to 10000 nM
5 | COCCn1c(-c2nc3cc(C(=O)N4CCC[C@@H](N)C4)cc4c3n2CCO4)cc2ccccc21 [Example 20, (R)-(3-aminopiperidin-1-yl)(2-(1-(2-methoxyethyl)-1H-indol-2-yl)-3,4-dihydro-5-oxa-1,2a-diazaacenaphthylen-7-yl)methanone] | ≤ 1000 nM
6 | COCCn1c(-c2nc3cc(C(=O)N4CCC[C@@H](N)C4)cc4c3n2CCO4)cc2ccc(OC)cc21 [Example 21, (R)-(3-aminopiperidin-1-yl)(2-(6-methoxy-1-(2-methoxyethyl)-1H-indol-2-yl)-3,4-dihydro-5-oxa-1,2a-diazaacenaphthylen-7-yl)methanone] | ≤ 1000 nM
7 | N[C@@H]1CCCN(C(=O)c2cc3c4c(c2)nc(-c2cc5ccccc5n2CCO)n4CCO3)C1 [Example 22, (R)-(3-aminopiperidin-1-yl)(2-(1-(2-hydroxyethyl)-1H-indol-2-yl)-3,4-dihydro-5-oxa-1,2a-diazaacenaphthylen-7-yl)methanone] | ≤ 1000 nM
8 | COc1ccc2cc(-c3nc4cc(C(=O)N5CCC[C@@H](N)C5)cc5c4n3CCO5)n(CC3CC3)c2c1 [Example 23, (R)-(3-aminopiperidin-1-yl)(2-(1-(cyclopropylmethyl)-6-methoxy-1H-indol-2-yl)-3,4-dihydro-5-oxa-1,2a-diazaacenaphthylen-7-yl)methanone] | ≤ 1000 nM
9 | N[C@@H]1CCCN(C(=O)c2cc3c4c(c2)nc(-c2cc5ccccc5n2Cc2ccncc2F)n4CCO3)C1 [Example 24, (R)-(3-aminopiperidin-1-yl)(2-(1-((3-fluoropyridin-4-yl)methyl)-1H-indol-2-yl)-3,4-dihydro-5-oxa-1,2a-diazaacenaphthylen-7-yl)methanone] | ≤ 1000 nM
10 | N[C@@H]1CCCN(C(=O)c2cc3c4c(c2)nc(-c2cc5ccccc5n2Cc2cnccn2)n4CCO3)C1 [Example 25, (R)-(3-aminopiperidin-1-yl)(2-(1-(pyrazin-2-ylmethyl)-1H-indol-2-yl)-3,4-dihydro-5-oxa-1,2a-diazaacenaphthylen-7-yl)methanone] | ≤ 1000 nM
11 | N[C@@H]1CCCN(C(=O)c2cc3c4c(c2)nc(-c2cc5ccccc5n2Cc2ncccc2F)n4CCO3)C1 [Example 26, (R)-(3-aminopiperidin-1-yl)(2-(1-((3-fluoropyridin-2-yl)methyl)-1H-indol-2-yl)-3,4-dihydro-5-oxa-1,2a-diazaacenaphthylen-7-yl)methanone] | ≤ 1000 nM
12 | N[C@@H]1CCCN(C(=O)c2cc3c4c(c2)nc(-c2cc5ccccc5n2Cc2ncccn2)n4CCO3)C1 [Example 27, (R)-(3-aminopiperidin-1-yl)(2-(1-(pyrimidin-2-ylmethyl)-1H-indol-2-yl)-3,4-dihydro-5-oxa-1,2a-diazaacenaphthylen-7-yl)methanone] | ≤ 1000 nM
13 | N[C@@H]1CCCN(C(=O)c2cc3c4c(c2)nc(-c2cc5ccc(F)cc5n2CC2CC2)n4CCO3)C1 [Example 28, (R)-(3-aminopiperidin-1-yl)(2-(1-(cyclopropylmethyl)-6-fluoro-1H-indol-2-yl)-3,4-dihydro-5-oxa-1,2a-diazaacenaphthylen-7-yl)methanone] | ≤ 1000 nM
14 | N[C@@H]1CCCN(C(=O)c2cc3c4c(c2)nc(-c2cc5ccccc5n2Cc2cncnc2)n4CCO3)C1 [Example 29, (R)-(3-aminopiperidin-1-yl)(2-(1-(pyrimidin-5-ylmethyl)-1H-indol-2-yl)-3,4-dihydro-5-oxa-1,2a-diazaacenaphthylen-7-yl)methanone] | 1000 to 10000 nM
15 | N[C@@H]1CCCN(C(=O)c2cc3c4c(c2)nc(-c2cc5ccccc5n2Cc2cccnn2)n4CCO3)C1 [Example 30, (R)-(3-aminopiperidin-1-yl)(2-(1-(pyridazin-3-ylmethyl)-1H-indol-2-yl)-3,4-dihydro-5-oxa-1,2a-diazaacenaphthylen-7-yl)methanone] | 1000 to 10000 nM
16 | CC(C)Cn1c(-c2nc3cc(C(=O)N4CCC[C@@H](N)C4)cc4c3n2CCO4)cc2ccccc21 [Example 31, (R)-(3-aminopiperidin-1-yl)(2-(1-isobutyl-1H-indol-2-yl)-3,4-dihydro-5-oxa-1,2a-diazaacenaphthylen-7-yl)methanone] | ≤ 1000 nM
17 | N[C@@H]1CCCN(C(=O)c2cc3c4c(c2)nc(-c2cc5cc(F)c(F)cc5n2CC2CC2)n4CCO3)C1 [Example 32, (R)-(3-aminopiperidin-1-yl)(2-(1-(cyclopropylmethyl)-5,6-difluoro-1H-indol-2-yl)-3,4-dihydro-5-oxa-1,2a-diazaacenaphthylen-7-yl)methanone] | ≤ 1000 nM
18 | COc1ccc2cc(-c3nc4cc(C(=O)N5CCC[C@@H](N)C5)cc5c4n3CCO5)n(Cc3ncccc3F)c2c1 [Example 33, (R)-(3-aminopiperidin-1-yl)(2-(1-((3-fluoropyridin-2-yl)methyl)-6-methoxy-1H-indol-2-yl)-3,4-dihydro-5-oxa-1,2a-diazaacenaphthylen-7-yl)methanone] | ≤ 1000 nM
19 | N[C@@H]1CCCN(C(=O)c2cc3c4c(c2)nc(-c2cc5cccc(Cl)c5n2Cc2ncccc2F)n4CCO3)C1 [Example 34, (R)-(3-aminopiperidin-1-yl)(2-(7-chloro-1-((3-fluoropyridin-2-yl)methyl)-1H-indol-2-yl)-3,4-dihydro-5-oxa-1,2a-diazaacenaphthylen-7-yl)methanone] | ≤ 1000 nM
20 | N[C@@H]1CCCN(C(=O)c2cc3c4c(c2)nc(-c2cc5ccc(F)cc5n2Cc2ncccc2F)n4CCO3)C1 [Example 35, (R)-(3-aminopiperidin-1-yl)(2-(6-fluoro-1-((3-fluoropyridin-2-yl)methyl)-1H-indol-2-yl)-3,4-dihydro-5-oxa-1,2a-diazaacenaphthylen-7-yl)methanone] | ≤ 1000 nM
21 | COCCn1c(-c2nc3cc(C(=O)N4CCC[C@@H](N)C4)cc4c3n2CCO4)cc2cccc(Cl)c21 [Example 36, (R)-(3-aminopiperidin-1-yl)(2-(7-chloro-1-(2-methoxyethyl)-1H-indol-2-yl)-3,4-dihydro-5-oxa-1,2a-diazaacenaphthylen-7-yl)methanone] | ≤ 1000 nM
22 | N[C@@H]1CCCN(C(=O)c2cc3c4c(c2)nc(-c2cc5ccccc5n2Cc2ccc(CO)cc2)n4CCO3)C1 [Example 37, (R)-(3-aminopiperidin-1-yl)(2-(1-(4-(hydroxymethyl)benzyl)-1H-indol-2-yl)-3,4-dihydro-5-oxa-1,2a-diazaacenaphthylen-7-yl)methanone trifluoroacetic acid salt] | ≤ 1000 nM
23 | CN(C)C/C=C/C(=O)N[C@@H]1CCCN(C(=O)c2cc3c4c(c2)nc(-c2cc5ccccc5n2CC2CC2)n4CCO3)C1 [Example 38, (R,E)-N-(1-(2-(1-(cyclopropylmethyl)-1H-indol-2-yl)-3,4-dihydro-5-oxa-1,2a-diazaacenaphthylene-7-carbonyl)piperidin-3-yl)-4-(dimethylamino)but-2-enamide trifluoroacetic acid salt] | ≥ 10000 nM
24 | N[C@@H]1CCCN(C(=O)c2cc3c4c(c2)nc(-c2cc5ccccc5n2CC2CCOCC2)n4CCO3)C1 [Example 40, (R)-(3-aminopiperidin-1-yl)(2-(1-((tetrahydro-2H-pyran-4-yl)methyl)-1H-indol-2-yl)-3,4-dihydro-5-oxa-1,2a-diazaacenaphthylen-7-yl)methanone] | 1000 to 10000 nM
25 | N[C@@H]1CCCN(C(=O)c2cc3c4c(c2)nc(-c2cc5ccccc5n2CC(=O)O)n4CCO3)C1 [Example 42, (R)-2-(2-(7-(3-aminopiperidine-1-carbonyl)-3,4-dihydro-5-ox 1,2a-diazaacenaphthylen-2-yl)-1H-indol-1-yl)acetic acid] | ≥ 10000 nM
26 | N[C@@H]1CCCN(C(=O)c2cc3c4c(c2)nc(-c2cc5ccccc5n2CC2CCNCC2)n4CCO3)C1 [Example 43, (R)-(3-aminopiperidin-1-yl)(2-(1-(piperidin-4-ylmethyl)-1H-indol-2-yl)-3,4-dihydro-5-oxa-1,2a-diazaacenaphthylen-7-yl)methanone] | ≥ 10000 nM
27 | N[C@@H]1CCCN(C(=O)c2cc3c4c(c2)nc(-c2cc5ccccc5n2CC2COC2)n4CCO3)C1 [Example 44, (R)-(3-aminopiperidin-1-yl)(2-(1-(oxetan-3-ylmethyl)-1H-indol-2-yl)-3,4-dihydro-5-oxa-1,2a-diazaacenaphthylen-7-yl)methanone] | 1000 to 10000 nM
